Measurements from patent US8679736B2, “Removal of adenine during a pathogen reduction process in whole blood or red blood cells by dilution” (Terumo BCT Biotechnologies, LLC, priority 2002, dated 2014).

Test system: red blood cells
Conditions: riboflavin and visible light, FIG. 4
From the text: Red blood cells were suspended in AS3 during a pathogen reduction procedure using riboflavin and visible light. […] AS3 contains sodium chloride, dextrose, adenine, sodium phosphate, sodium citrate and citric acid.

SMILES: Cc1cc2nc3c(=O)[nH]c(=O)nc-3n(CC(O)C(O)C(O)CO)c2cc1C (stereo not shown) [riboflavin, 7,8-dimethyl-10-ribityl isoalloxazine]
- % hemolysis of red blood cells: less than 2%
